For orientation: melting point means the temperature of the solid-liquid transition.

Among the data in patent US8022089B2, “Isoxazoline-substituted benzamide compound and pesticide” (Nissan Chemical Industries, Ltd., priority 2004, dated 2011) are melting point values, retold here.

The molecule `CNc1cc(C2=NOC(c3cc(Cl)cc(Cl)c3)(C(F)(F)F)C2)ccc1C(=O)NCC(F)(F)F` (stereo not shown) showed a melting point of 156 to 158 °C.
